The values that follow come from patent publication US6060516A, “N^1 -propargylhydrazines, N^2 -propargylhydrazines and their analogs for the treatment of depression, anxiety and neurodegeneration” (CV Technologies, Inc., priority 1998, dated 2000).

The subject of test [1] is NA, DA, 5-HT, 5-HIAA and DOPAC concentrations in rat hypothalamus. Briefly: Rat hypothalamus amine and amine metabolite concentrations. Format: in vivo. The note with it: 5.75 μmol/kg, 5 hr, ip. On the procedure: The effects of various doses of CVT-P040 on the concentrations of hypothalamus amine neurotransmitters and their metabolites were evaluated by examining concentrations of noradrenaline (NA), dopamine (DA), 5-hydroxytryptamine (5-HT), 5-hydroxyindoleacetic acid (5-HIAA) and 3,4-dihydroxyphenylacetic acid (DOPAC) in rat hypothalami 5 hours after the injection of the drug. […] The brains were removed and divided in half. One half of the brain was frozen in isopentane on dry ice and retained for estimates of amino acid neurotransmitter concentrations. The other half had the hypothalamus removed and frozen on dry ice for later estimates of amines and their metabolites according to the method of Sloley, B. D. and Goldberg J. I. (1991), Determination of γ-glutamyl conjugates of monoamines by means of high-performance liquid chromatography with electrochemical detection and application to gastropod tissues, J. Chromatog. 567: 49-56. The rest of the brain was frozen on dry ice for ex vivo examination of MAO activity as described earlier.

The test system of test [2] is rat brain and liver monoamine oxidase-A. The test is described as follows: Monoamine oxidase-A inhibiting activity ex vivo. Format: in vivo. The note with it: 5.75 μmol/kg, 5 hr, i.p. in 10% DMSO. As for the experimental part:
(§1) Radiolabelled 5-hydroxytryptamine was used as a substrate for monoamine oxidase-A. The compounds of interest were either injected intraperitonealy in DMSO or administered by gavage in water for various periods. The animals were killed by decapitation and the brains and livers immediately removed and frozen until assayed for monoamine oxidase-A activity. Tissues were homogenized and appropriately diluted in buffer prior to incubation. Incubations proceeded at 37° C. for 10 minutes. Incubation was terminated by the addition of acid and the radiolabelled product (5-hydroxyindoleacetaldehyde and 5-hydroxyindoleacetic acid) was extracted and quantified by liquid scintillation counting procedures. Incubations were done in triplicate and incubations containing phenelzine were included for comparison. The percent inhibition of monoamine oxidase-A activity compared to controls containing no drug was calculated.
Values are the mean ± the standard error based on (n) determinations.
Oral doses were administered as 75 μmol/kg on day 1, 75 μmol/kg on
day 2 and the animals were killed 5 hours later.

The test system of the next test is MAO-A. The test is described as follows: MAO-A inhibition ex vivo in DSP-4 treated mice (brain). Details: species or system mouse. On the procedure: as §1, with “The compounds were evaluated for ex vivo monoamine oxidase-A inhibiting activity using the radiochemical procedure of Lyles, G. A. and Callingham, B. A. (1982). […] Biochem. Pharmacol. 31: 1417-1424. Radiolabelled” for “Radiolabelled”
(§2) Neuroprotectant activity was evaluated by examining the prevention of DSP-4 induced noradrenaline depletion in mouse hippocampus as described in Yu, P. H., Davis, B. A., Fang, J. and Boulton, A. A. (1994), Neuroprotective effect of some monoamine oxidase-B inhibitors against DSP-4 induced noradrenaline depletion in the mouse hippocampus, J. Neurochem. 63: 1820-1828. Briefly, mice were injected (i.p.) with either 20% DMSO or potential neuroprotectants (10 mg/kg in 20% DMSO). One hour later they were injected with either water or DSP-4 (50 mg/kg in water). One week later the mice were killed and the brains removed and the hippocampus dissected out. The hippocampus was frozen and saved for estimation of noradrenaline and other aminergic neurotransmitters and their metabolites as in Sloley, B. D. and Goldberg J. I. (1991), Determination of γ-glutamyl conjugates of monoamines by means of high-performance liquid chromatography with electrochemical detection and application to gastropod tissues, J. Chromatog. 567: 49-56. The rest of the brain was frozen and retained for estimation of monoamine oxidase activities ex vivo as described earlier.

The test system of test [3] is DSP-4 induced noradrenaline depletion in mouse hippocampus. The test is described as follows: Prevention of DSP-4 induced noradrenaline depletion in mouse hippocampus. In kind it is in vivo. As to conditions: 10 mg/kg then DSP-4 50 mg/kg; saline control experiment.
Test [4] has the same test system. The description is as above. In kind it is in vivo. On the procedure:
as §2

Test [5] deals with T1, rat brain monoamine oxidase-A (Rattus norvegicus, UniProt P21396).
T1 construct: appropriately diluted homogenates of rat brain or liver; from tissue; host or cells: rat brain or liver homogenate
T1 sequence (P21396 1-526): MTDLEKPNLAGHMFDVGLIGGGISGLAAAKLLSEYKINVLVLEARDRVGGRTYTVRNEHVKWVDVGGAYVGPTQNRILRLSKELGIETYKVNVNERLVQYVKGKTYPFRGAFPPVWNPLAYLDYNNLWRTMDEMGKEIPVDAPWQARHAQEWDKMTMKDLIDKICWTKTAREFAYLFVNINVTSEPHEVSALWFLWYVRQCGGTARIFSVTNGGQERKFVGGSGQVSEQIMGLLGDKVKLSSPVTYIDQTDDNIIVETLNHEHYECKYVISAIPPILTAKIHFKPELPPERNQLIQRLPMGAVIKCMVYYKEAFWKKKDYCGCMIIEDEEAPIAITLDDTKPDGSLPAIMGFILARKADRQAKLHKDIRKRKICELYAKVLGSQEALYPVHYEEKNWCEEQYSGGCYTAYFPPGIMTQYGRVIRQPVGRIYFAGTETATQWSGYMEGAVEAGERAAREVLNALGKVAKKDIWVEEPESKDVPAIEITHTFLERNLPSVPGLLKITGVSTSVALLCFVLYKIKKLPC
Briefly: Monoamine oxidase-A inhibiting activity in vitro (radiochemical, 5-hydroxytryptamine substrate, rat brain homogenate). As to conditions: for inhibition at 100 µM: 1 × 10^-4 M; for inhibition at 10 µM: 1 × 10^-5 M; for inhibition at 1 µM: 1 × 10^-6 M; for inhibition at 0.1 µM: 1 × 10^-7 M; for inhibition at 0.01 µM: 1 × 10^-8 M. Format: biochemical. As for the experimental part: Radiolabelled 5-hydroxytryptamine was used as the substrate for monoamine oxidase-A. Various concentrations of the compounds were incubated in appropriately diluted homogenates of rat brain or liver in a 0.2 M potassium phosphate buffer. Incubations proceeded at 37° C. for 10 minutes. Incubation was terminated by the addition of acid and the radiolabelled product (5-hydroxyindoleacetic acid) was extracted and quantified by liquid scintillation counting procedures. Incubations were done in triplicate and incubations containing phenelzine were included for comparison. The percent inhibition of monoamine oxidase-A activity compared to controls without the compounds of the present invention was calculated.

Test [6] deals with T2, rat brain monoamine oxidase-B (Rattus norvegicus, UniProt P19643).
T2 construct: appropriately diluted homogenates of rat brain or liver; from tissue; host or cells: rat brain or liver homogenate
T2 sequence (P19643 1-520): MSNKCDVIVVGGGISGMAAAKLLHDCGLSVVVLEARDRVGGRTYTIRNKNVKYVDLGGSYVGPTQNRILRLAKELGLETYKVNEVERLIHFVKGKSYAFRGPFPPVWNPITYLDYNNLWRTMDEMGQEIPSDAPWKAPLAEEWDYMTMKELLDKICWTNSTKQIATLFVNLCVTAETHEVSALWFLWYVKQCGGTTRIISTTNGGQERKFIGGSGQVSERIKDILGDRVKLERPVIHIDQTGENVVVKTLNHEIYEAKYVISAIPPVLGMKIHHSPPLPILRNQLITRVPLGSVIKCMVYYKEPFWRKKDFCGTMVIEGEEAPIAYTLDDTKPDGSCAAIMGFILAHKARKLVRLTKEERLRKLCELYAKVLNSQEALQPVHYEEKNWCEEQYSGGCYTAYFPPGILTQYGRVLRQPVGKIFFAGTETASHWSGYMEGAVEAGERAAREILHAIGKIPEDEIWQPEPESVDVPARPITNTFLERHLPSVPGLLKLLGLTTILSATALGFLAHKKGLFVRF
Briefly: Monoamine oxidase-B inhibiting activity in vitro (radiochemical, β-phenylethylamine substrate, rat brain homogenate). In kind it is biochemical. As to conditions: for inhibition at 100 µM: 1 × 10^-4 M; for inhibition at 10 µM: 1 × 10^-5 M; for inhibition at 1 µM: 1 × 10^-6 M; for inhibition at 0.1 µM: 1 × 10^-7 M; for inhibition at 0.01 µM: 1 × 10^-8 M. As for the experimental part: Radiolabelled β-phenylethylamine was employed as a substrate for monoamine oxidase-B. Various concentrations of the compounds of interest were incubated in appropriately diluted homogenates of rat brain or liver in a 0.2 M potassium phosphate buffer. Incubations proceeded at 37° C. for 10 minutes. Incubation was terminated by the addition of acid and the radiolabelled product (phenylacetaldehyde and phenylacetic acid) was extracted and quantified by liquid scintillation counting procedures. Incubations were done in triplicate and incubations containing phenelzine were included for comparison. The percent inhibition of monoamine oxidase-B activity compared to controls containing no drug was calculated.

A further test has as its system PC12 cells. The test is described as follows: PC12 neurite outgrowth (neurotrophic effect). Format: cell-based. The note with it: for Index of Neurite Outgrowth: seven days. As for the experimental part: The effects of CVT-P040 on neurite outgrowth in cell culture were investigated using an established PC 12 pheochromocytoma cell culture. The effects of CVT-P040 and nerve growth factor on neurite outgrowth were estimated using the method described by Rydel, R. E and Greene, L. A.(1987), Acidic and basic fibroblast growth factors promote stable neurite outgrowth and basic neuronal differentiation in cultures of PC12 cells, J. Neuroscience 7: 3639-3653. Briefly, PC12 cells were seeded and maintained in 100 cm^2 tissue culture dishes at 37° C. in RPMI1640 media containing 1% antibiotics, 10% heat inactivated horse serum and 5% fetal bovine serum in a water saturated atmosphere of 95% air and 5% CO2. The cells were mechanically dislodged and plated into 35 mm collagen-coated tissue culture dishes containing a total of 2.0 ml complete medium at a density of […]. The medium was changed 3 times/week. Cellular responses to CVT-P040 and nerve growth factor (NGF) were determined by counting the number of PC12 cells containing processes. Photographs of the cells were taken after seven days treatment. Two cell fields were chosen in each dish and the photographs developed and printed. […] The neurite index was calculated using the following formula; Neurite Index=total neurite score (ΣS)/ total cell number (ΣN); ΣS=S1×N+S2×N +S3×N+S4×N, where N is the number of cells in each cell field.

Where [7] appears, read: 10 mg/kg i.p. then DSP-4 50 mg/kg, 20% DMSO control experiment.

Consider `C#CCN(C)[C@H](C)Cc1ccccc1` [(-)-deprenyl, reference compound], for which, in test [1], the 5-HIAA was 407 ± 22 ng/g, the 5-HT is on record as 821 ± 44 ng/g, the DA was 541 ± 44 ng/g and the DOPAC came out at 87 ng/g. Also, the NA in test [1] is on record as 1510 ± 70 ng/g. In addition, the “% Inhibition Monoamine Oxidase-A” value in test [2] (brain) is reported as -0.6 ± 1.1%. Further, the “% Inhibition Monoamine Oxidase-A” value in test [2] (liver) stood at 8.0 ± 2.2%. Further, in the test with MAO-A (setting [7]), the “MAO-A % Inhibition” value is recorded as 18.8 ± 6.0%. In addition, in the test with MAO-A (10 mg/kg then DSP-4 50 mg/kg, saline control experiment), the “MAO-A % Inhibition” value is 9.9 ± 6.0%. In addition, in test [3], the “% NA Restoration” value is given as 73.1% and the NA turned out to be 432 ± 13 ng/g. Further, in test [4] (setting [7]), the “% NA Restoration” value worked out at 86.6% and the NA worked out at 315 ± 34 ng/g. Besides, the “protection against DSP-4 induced noradrenaline depletion / neuroprotective effect” value in test [4] (10 mg/kg, mouse hippocampus, in words) is given as “significantly protected against DSP-4 induced noradrenaline depletion”.
In the case of `C#CCNNCCc1ccccc1` [CVT-P039, N^2 -propargylphenelzine], the inhibition at 100 µM came to 31.6% in test [5] and 20.9% in test [6]. Further, the inhibition at 10 µM in test [5] is -25.8%; in test [6], -0.2%.
For the compound `C#CCN(N)Cc1ccccc1` [CVT-P046, N^1 -propargylbenzylhydrazine], in test [5], the inhibition at 100 µM came out at 100%, the inhibition at 10 µM was found to be 99.4%, the inhibition at 1 µM was 49.4% and the inhibition at 0.1 µM was determined as 18.5%. Moreover, the inhibition at 0.01 µM in test [5] was -5%. Also, in test [6], the inhibition at 100 µM was found to be 100%, the inhibition at 10 µM was determined as 92.3%, the inhibition at 1 µM came out at 86.2% and the inhibition at 0.1 µM was determined as 64.9%. In addition, the inhibition at 0.01 µM in test [6] was determined as 18.6%.
Regarding `C#CCN(N)c1ccccc1` [CVT-P047, N^1 -propargylphenylhydrazine], in test [5], the inhibition at 100 µM is 99.7%, the inhibition at 10 µM was 78.2%, the inhibition at 1 µM is 15.9% and the inhibition at 0.1 µM is -3.8%. The inhibition at 0.01 µM in test [5] was -2.9%. In addition, in test [6], the inhibition at 100 µM stood at 100%, the inhibition at 10 µM was determined as 94.3%, the inhibition at 1 µM was 65.1% and the inhibition at 0.1 µM was found to be 17.9%. In addition, in test [6], the inhibition at 0.01 µM came to 0.1%.
Consider NGF: nerve growth factor (NGF), for which the “Index of Neurite Outgrowth” value is listed as 0.58 ± 0.03 in the test on PC12 cells (NGF 0.1 ng/ml), 0.79 ± 0.07 in the test on PC12 cells (NGF 0.3 ng/ml) and 1.16 ± 0.06 with PC12 cells (NGF 1.0 ng/ml). Besides, in the test with PC12 cells (NGF 0.1, 0.3 and 1.0 ng/ml, in words), the “neurite outgrowth in PC12 cells” value is “increased neurite outgrowth in PC12 cells”.
